Where a name gives a salt, the structure may show the parent alone.

In general, melting point refers to the temperature of the solid-liquid transition. For `CNC(=O)Nc1ccccc1CN1CCC(CCCC(=O)c2ccc3c(c2)CCN(Cc2ccccc2C)CC3)CC1` (as salt: hydrochloride), the melting point was 176 to 189 °C (dec.).

For `Cc1ccccc1CN1CCC(CCC(=O)c2ccc3c(c2)CN(Cc2ccccc2)CCO3)CC1` (as salt: hydrochloride), the melting point lay within 232 to 234 °C. `Cc1cccc(CN2CCC(CCC(=O)c3ccc4c(c3)CN(Cc3ccccc3)CCO4)CC2)c1` (as salt: hydrochloride) [Example 4, 3-[1-[(3-Methylphenyl)methyl]-4-piperidinyl]-1-[4-(phenylmethyl)-2,3,4,5-tetrahydro-1,4-benzoxazepin-7-yl]-1-propanone Dihydrochloride] came in with a melting point of 212 to 214 °C.

`O=C(CCC1CCN(Cc2ccc(F)cc2)CC1)c1ccc2c(c1)CN(Cc1ccccc1)CCO2` (as salt: hydrochloride) [Example 8, 3-[1-[(4-Fluorophenyl)methyl]-4-piperidinyl]-1-[4-(phenylmethyl)-2,3,4 5-tetrahydro-1,4-benzoxazepin-7-yl]-1-propanone Dihydrochloride] returned a melting point of 212 to 214 °C. `O=C(CCC1CCN(Cc2ccccc2C(F)(F)F)CC1)c1ccc2c(c1)CN(Cc1ccccc1)CCO2` (as salt: hydrochloride) [Example 12, 1-[4-(Phenylmethyl)-2,3,4,5-tetrahydro-1,4-benzoxazepin-7-yl]-3-[1-[(2-trifluoromethylphenyl)methyl]-4-piperidinyl]-1-propanone Dihydrochloride] showed a melting point of 223 to 225 °C.

Compound `O=C(CCCC1CCNCC1)c1ccc2c(c1)CCN(Cc1ccccc1)CC2` (as salt: hydrochloride) [Example 26, 1-[3-(Phenylmethyl)-2,3,4,5-tetrahydro-1H-3-benzazepin-7-yl]-4-(4-piperidinyl)-1-butanone Dihydrochloride] gave a melting point of 201 to 203 °C. For the compound `O=C(CCC1CCN(Cc2ccc(Cl)cc2)CC1)c1ccc2c(c1)CCN(Cc1ccc(F)cc1)CC2` (as salt: hydrochloride) [Example 41, 3-[1-[(4-Chlorophenyl)methyl]-4-piperidinyl]-1-[3-[(4-fluorophenyl)methyl]-2,3,4,5-tetrahydro-1H-3-benzazepin-7-yl]-1-propanone Dihydrochloride], the melting point is 219 to 222 °C (dec.).

With `CN1CCC(CCC(=O)c2ccc3c(c2)CCN(Cc2ccc(F)cc2)CC3)CC1` (as salt: hydrochloride) [Example 42, 1-[3-[(4-Fluorophenyl)methyl]-2,3,4,5-tetrahydro-1H-3-benzazepin-7-yl]-3-(1-methyl-4-piperidinyl)-1-propanone Dihydrochloride], the melting point was 213 to 216 °C (dec.). The figure for `CCOC(=O)C(C)(C)c1ccc(CN2CCC(CCC(=O)c3ccc4c(c3)CCN(Cc3ccc(F)cc3)CC4)CC2)cc1` (as salt: hydrochloride) [Example 43, Ethyl 2-methyl-2-[4-[[4-[3-[3-[(4-fluorophenyl)methyl]-2,3,4,5-tetrahydro-1H-3-benzazepin-7-yl]-3-oxopropyl]-1-piperidinyl]methyl]phenyl]propionate Dihydrochloride] is 228 to 231 °C (dec.).

`CCOC(=O)COc1ccc(CN2CCC(CCC(=O)c3ccc4c(c3)CCN(Cc3ccc(F)cc3)CC4)CC2)cc1` (as salt: hydrochloride) [Example 45, Ethyl 2-[4-[[4-[3-[3-[(4-fluorophenyl)methyl]-2,3,4,5-tetrahydro-1H-3-benzazepin-7-yl]-3-oxopropyl]-1-piperidinyl]methyl]phenoxy]ethanoate Dihydrochloride] yielded a melting point of 206 to 208 °C. To `O=C(CCC1CCN(Cc2ccc(-c3ccccc3)cc2)CC1)c1ccc2c(c1)CCN(Cc1ccc(F)cc1)CC2` (as salt: hydrochloride) [Example 49, 1-[3-[(4-Fluorophenyl)methyl]-2,3,4,5-tetrahydro-1H-3-benzazepin-7-yl]-3-[1-[(4-phenylphenyl)methyl]-4-piperidinyl]-1-propanone Dihydrochloride] belongs 225 to 228 °C (dec.); to `O=C(CCC1CCNCC1)c1ccc2c(c1)CN(Cc1ccc(F)cc1)CCO2` (as salt: hydrochloride) [Example 78, 1-[4-[(4-Fluorophenyl)methyl]-2,3,4,5-tetrahydro-1,4-benzoxazepin-7-yl]-3-(4-piperidinyl)-1-propanone Dihydrochloride], 173 to 174 °C; to `Cc1cccc(CN2CCC(CCC(=O)c3ccc4c(c3)CN(Cc3ccc(F)cc3)CCO4)CC2)c1` (as salt: hydrochloride) [Example 79, 1-[4-[(4-Fluorophenyl)methyl]-2,3,4,5-tetrahydro-1,4-benzoxazepin-7-yl]-3-[1-[(3-methylphenyl)methyl]-4-piperidinyl]-1-propanone Dihydrochloride], 223 to 225 °C. `O=C(CCC1CCN(Cc2cccc(Cl)c2)CC1)c1ccc2c(c1)CN(Cc1ccc(F)cc1)CCO2` (as salt: hydrochloride) [Example 80, 3-[1-[(3-Chlorophenyl)methyl]-4-piperidiny]-1-[4-[(4-fluorophenyl)methyl]-2,3,4,5-tetrahydro-1,4-benzoxazepin-7-yl]-1-propanone Dihydrochloride]: the melting point was 224 to 225 °C. Consider `O=C(CCC1CCN(Cc2cccc(F)c2)CC1)c1ccc2c(c1)CN(Cc1ccc(F)cc1)CCO2` (as salt: hydrochloride) [Example 81, 3-[1-[(3-Fluorophenyl)methyl]-4-piperidiny]-1-[4-[(4-fluorophenyl)methyl]-2,3,4,5-tetrahydro-1,4-benzoxazepin-7-yl]-1-propanone Dihydrochloride], for which the melting point was 228 to 231 °C. `Cc1ccccc1CN1CCC(CCC(=O)c2ccc3c(c2)CN(Cc2ccc(F)cc2)CCO3)CC1` (as salt: hydrochloride) [Example 83, 1-[4-[(4-Fluorophenyl)methyl]-2,3,4,5-tetrahydro-1,4-benzoxazepin-7-yl]-3-[1-[(2-methylphenyl)methy]-4-piperidinyl]-1-propanone Dihydrochloride]: the melting point is 216 to 219 °C. In turn, `O=C(CCC1CCN(Cc2ccc(C(F)(F)F)cc2)CC1)c1ccc2c(c1)CN(Cc1ccc(F)cc1)CCO2` (as salt: hydrochloride) [Example 88, 1-[4-[(4-Fluorophenyl)methyl]-2,3,4,5-tetrahydro-1,4-benzoxazepin-7-yl]-3-[1-[[4-(trifluoromethyl)phenyl]methyl]-4-piperidinyl]-1-propanone Dihydrochloride] came in with a melting point of 234 to 237 °C. As to `COc1ccc(CN2CCc3ccc(C(=O)CCC4CCN(Cc5ccc(C(C)(C)C)cc5)CC4)cc3CC2)cc1` (as salt: hydrochloride) [Example 93, 1-[3-[(4-methbyphenyl)methyl]-2,3,4,5-tetrahydro-1H-3-benzazepin-7-yl]3-[1-[[4-(tert-butyl)phenyl]methyl]-4-piperidinyl]-1-propanone Dihydrochloride], the melting point is 241 to 244 °C (dec.).

On to `COc1ccc(CN2CCc3ccc(C(=O)CCC4CCN(Cc5ccc(Cl)c(Cl)c5)CC4)cc3CC2)cc1` (as salt: hydrochloride) [Example 96, 3-[1-[(3,4-Dichlorophenyl)methyl]-4-piperidinyl]-1-[3-[(4-methoxyphenyl)methyl]-2,3,34,5-tetrahydro-1H-3-benzazepin-7-yl]-1-propanone Dihydrochloride], for which the melting point was 220 to 223 °C (dec.).

Source of the values: patent US6534496B1, “Thermogenic composition and benzazepine thermogenics” (Takeda Chemical Industries, Inc., priority 1997, dated 2003).
